From patent US20250066351A1, “PYRAZOLO[1,5-A]PYRIDIN-2,3-YL AMIDES AS KV7 CHANNEL ACTIVATORS” (Biohaven Therapeutics Ltd., priority 2022, published 2025) come the findings set out here.

This experiment deals with T1, hKv7.2/7.3 (Homo sapiens, UniProt O43525+O43526).
T1 construct: host or cells: HEK cells, tetracycline-inducible expression
In words: Kv7.2/7.3 Activation Assay, QPatch planar patch-clamp single concentration screen. It is filed as cell-based. The conditions noted are these: increase in current over baseline, Kv7.2/Kv7.3 co-expressing HEK cells, compound concentration 3 μM, steady-state current at end of 2 s pulse to −30 mV. Here is the method:
The ability of compounds to potentiate K-currents in Kv7.2/7.3 containing HEK cells was assessed using planar patch-clamp on the QPatch automated screening platform.
Cell Line: The hKv7.2/7.3 cell line was obtained from Chantest (Cleveland, OH 44128) cat. #CT6147. These HEK cells will express the Kv7.2/7.3 ion channels when induced.
Cell Culture: Cells were maintained in a media containing DMEM/F12; 50/50 (GIBCO cat. #11330), 10% Fetal Bovine Serum (FBS) (GIBCO cat. #26140), 100 units/mL Penicillin-Streptomycin (GIBCO cat. #15140), 0.005 mg/mL Blasticidin (INVIVOGEN cat. #ant-bl-1), 0.5 mg/mL Geneticin (GIBCO cat. #10131), 0.1 mg/mL Zeocin (GIBCO cat. #R25001). Cells used in the electrophysiology assay were maintained in a media without Blasticidin, Geneticin and Zeocin for 2 days and channel expression was induced by adding tetracycline (BIOLINE cat. #BIO-87030) at a final concentration of […]. Cells were grown in T-175 flask to ˜75% confluency. Currents were recorded 24 hours after channel induction.
Compound Plates: Test compounds were prepared by performing serial dilutions on a Biomek NX^P (BECKMAN COULTER). Final dilutions were made in external recording solution with a final DMSO concentration of 0.1% DMSO. For single concentration screens each plate had 10 μM retigabine as a positive control and 0.1% DMSO as a negative control.
Electrophysiology: On the day of the experiment cells were washed with Hank's Balanced Salt Solution (HBBS) (GIBCO cat. #14175) and harvested with Tryple (GIBCO cat. #12604). Cells were then centrifuged at 2000 rpm for 5 minutes and resuspended in CHO—S-SFM (GIBCO cat. #12052) at […]. Cells were stirred for 30 minutes before experiments were started. External recording solution contained (in mM): NaCl (145), KCl (4), CaCl2 (2), MgCl2 (1), HEPES (10) and Glucose (10); pH was adjusted to 7.4 with NaOH and the osmolarity was adjusted to 300-305 mOsM with sucrose if necessary. Internal solution contained (in mM): KCl (125), KF (10), EGTA (5), Na2ATP (5), MgCl2 (3.2), HEPES (5); pH was adjusted to 7.2 with KOH and the osmolarity was adjusted to 298-302 mOsM with sucrose.
Potassium channel activity was measured on the QPatch HTX (Sophion Bioscience) using QPlates with 48-wells/plate. Each cell was taken as an independent experiment and only one compound was tested per well. Potassium channel activity was elicited by holding at −80 mV and stepping to −30 mV for 2 s followed by a 100 ms pulse to −120 mV.
Single concentration screen: Baseline conditions were obtained by recording 5 sweeps in the external solution only, this was repeated for three applications of the external solution. The effect of test compounds on elicited current was then assessed by recording 5 sweeps in the presence of a 3 μM compound solution. The steady-state current at the end of the 2 s pulse to −30 mV was measured to determine the fold increase from baseline.
Background: Patch clamp records ionic current or voltage across a cell membrane.
For `CC(C)(C)CC(=O)Nc1nn2cccc(F)c2c1C1CCC1` [Example 60, N-(3-cyclobutyl-4-fluoropyrazolo [1,5-a]pyridin-2-yl)-3,3-dimethylbutanamide], the “QPatch Kv7.2/7.3 Activity” value is recorded as “++ (4.0-5.99 (++))”. Turning to `CC(C)(O)CC(=O)Nc1nn2cccc(F)c2c1C1CCC1` [Example 61, N-(3-cyclobutyl-4-fluoropyrazolo[1,5-a]pyridin-2-yl)-3-hydroxy-3-methylbutanamide], the “QPatch Kv7.2/7.3 Activity” value is recorded as “+/− (1.2-1.99-fold (+/−))”. Consider `C[C@](O)(CC(=O)Nc1nn2ccc(Cl)cc2c1-c1ccc(F)cc1)C(F)(F)F` [Example 62, (S)-N-(5-chloro-3-(4-fluorophenyl)pyrazolo [1,5-a]pyridin-2-yl)-4,4,4-trifluoro-3-hydroxy-3-methylbutanamide], for which the “QPatch Kv7.2/7.3 Activity” value was “+ (2.0-3.99 (+))”. In the case of `C[C@@](O)(CC(=O)Nc1nn2ccc(Cl)cc2c1-c1ccc(F)cc1)C(F)(F)F` [Example 63, (R)-N-(5-chloro-3-(4-fluorophenyl)pyrazolo [1,5-a]pyridin-2-yl)-4,4,4-trifluoro-3-hydroxy-3-methylbutanamide], the “QPatch Kv7.2/7.3 Activity” value is “+ (2.0-3.99 (+))”.

In the case of `CC(C)(F)CC(=O)Nc1nn2ccc(C(F)(F)F)cc2c1C1CCC1` [Example 64, N-(3-cyclobutyl-5-(trifluoromethyl)pyrazolo [1,5-a]pyridin-2-yl)-3-fluoro-3-methylbutanamide], the “QPatch Kv7.2/7.3 Activity” value is reported as “+++ (>6-fold (+++))”. Regarding `CC(C)(C)CC(=O)Nc1nn2c(C(F)F)cccc2c1C1CCC1` [Example 65, N-(3-cyclobutyl-7-(difluoromethyl)pyrazolo [1,5-a]pyridin-2-yl)-3,3-dimethylbutanamide], the “QPatch Kv7.2/7.3 Activity” value is “++ (4.0-5.99 (++))”. Turning to `CC(C)(O)CC(=O)Nc1nn2c(-c3ccc(F)cc3)cccc2c1C1CCC1` [Example 66, N-(3-cyclobutyl-7-(4-fluorophenyl)pyrazolo [1,5-a]pyridin-2-yl)-3-hydroxy-3-methylbutanamide], the “QPatch Kv7.2/7.3 Activity” value is on record as “− (<1.2-fold (−))”. Consider `Cn1ccc(-c2c(NC(=O)CC(C)(C)O)nn3ccc(C(F)(F)F)cc23)n1` [Example 67, 3-hydroxy-3-methyl-N-(3-(1-methyl-1H-pyrazol-3-yl)-5-(trifluoromethyl)pyrazolo [1,5-a]pyridin-2-yl)butanamide], for which the “QPatch Kv7.2/7.3 Activity” value is “− (<1.2-fold (−))”. As to `CC(C)(O)CC(=O)Nc1nn2ccc(Cl)cc2c1-c1ccc(OC(F)(F)F)cc1` [Example 68, N-(5-chloro-3-(4-(trifluoromethoxy)phenyl)pyrazolo[1,5-a]pyridin-2-yl)-3-hydroxy-3-methylbutanamide], the “QPatch Kv7.2/7.3 Activity” value is recorded as “+ (2.0-3.99 (+))”. Regarding `CC(C)(C)OC(=O)Nc1nn2ccc(Br)cc2c1C1CCC1` [Example 69, tert-butyl (5-bromo-3-cyclobutylpyrazolo[1,5-a]pyridin-2-yl)carbamate], the “QPatch Kv7.2/7.3 Activity” value is “+ (2.0-3.99 (+))”. The entry for `CC(C)(O)CC(=O)Nc1nn2c(C3CC3)cccc2c1C1CCC1` [Example 70, N-(3-cyclobutyl-7-cyclopropylpyrazolo [1,5-a]pyridin-2-yl)-3-hydroxy-3-methylbutanamide] is “+ (2.0-3.99 (+))”; for `C[C@](O)(CC(=O)Nc1nn2ccc(Cl)cc2c1-c1ccc(F)cc1)c1ccccc1` [Example 71, (S)-N-(5-chloro-3-(4-fluorophenyl)pyrazolo [1,5-a]pyridin-2-yl)-3-hydroxy-3-phenylbutanamide] it is “+ (2.0-3.99 (+))”; for `CC(C)(O)CC(=O)Nc1nn2c(C(F)F)cccc2c1C1CCC1` [Example 72, N-(3-cyclobutyl-7-(difluoromethyl)pyrazolo [1,5-a]pyridin-2-yl)-3-hydroxy-3-methylbutanamide] it is “+/− (1.2-1.99-fold (+/−))”. Consider `C[C@@](O)(CC(=O)Nc1nn2cccc(F)c2c1C1CCC1)c1ccccn1` [Example 73, (R)-N-(3-cyclobutyl-4-fluoropyrazolo [1,5-a]pyridin-2-yl)-3-hydroxy-3-(pyridin-2-yl)butanamide], for which the “QPatch Kv7.2/7.3 Activity” value is given as “− (<1.2-fold (−))”.

`CC(C)(C)CC(=O)Nc1nn2ccc(C3(O)CCC3)cc2c1C1CCC1` [Example 74, N-(3-cyclobutyl-5-(1-hydroxycyclobutyl)pyrazolo[1,5-a]pyridin-2-yl)-3,3-dimethylbutanamide]: the “QPatch Kv7.2/7.3 Activity” value was “++ (4.0-5.99 (++))”. Consider `CC(C)(C)CC(=O)Nc1nn2c(C(F)(F)F)cccc2c1-c1ccc(F)cc1` [Example 75, N-(3-(4-fluorophenyl)-7-(trifluoromethyl)pyrazolo [1,5-a]pyridin-2-yl)-3,3-dimethylbutanamide], for which the “QPatch Kv7.2/7.3 Activity” value is reported as “− (<1.2-fold (−))”. Regarding `CC(C)(O)CC(=O)Nc1nn2c(C(F)(F)F)cccc2c1-c1ccc(F)cc1` [Example 76, N-(3-(4-fluorophenyl)-7-(trifluoromethyl)pyrazolo [1,5-a]pyridin-2-yl)-3-hydroxy-3-methylbutanamide], the “QPatch Kv7.2/7.3 Activity” value was “+ (2.0-3.99 (+))”. For the molecule `CCC(O)(CC)CC(=O)Nc1nn2ccc(C(F)(F)F)cc2c1-c1ccc(F)cc1` [Example 77, 3-ethyl-N-(3-(4-fluorophenyl)-5-(trifluoromethyl)pyrazolo [1,5-a]pyridin-2-yl)-3-hydroxypentanamide], the “QPatch Kv7.2/7.3 Activity” value is “+ (2.0-3.99 (+))”. On to `C[C@](O)(CC(=O)Nc1nn2c(C(F)(F)F)cccc2c1-c1ccc(F)cc1)c1ccccc1` [Example 78, (S)-N-(3-(4-fluorophenyl)-7-(trifluoromethyl)pyrazolo [1,5-a]pyridin-2-yl)-3-hydroxy-3-phenylbutanamide], for which the “QPatch Kv7.2/7.3 Activity” value was “+ (2.0-3.99 (+))”. The same measure for `CC(C)(C)CC(=O)Nc1nn2ccc(C(C)(C)O)cc2c1-c1ccc(F)cc1` [Example 79, N-(3-(4-fluorophenyl)-5-(2-hydroxypropan-2-yl)pyrazolo[1,5-a]pyridin-2-yl)-3,3-dimethylbutanamide]: “++ (4.0-5.99 (++))”; for `CC(C)(C)CC(=O)Nc1nn2ccc(C(F)(F)F)cc2c1C#N` [Example 80, N-(3-cyano-5-(trifluoromethyl)pyrazolo [1,5-a]pyridin-2-yl)-3,3-dimethylbutanamide]: “− (<1.2-fold (−))”; for `CC(C)(C)CC(=O)Nc1nn2c(Cl)cc(Cl)cc2c1-c1ccc(F)cc1` [Example 81, N-(5,7-dichloro-3-(4-fluorophenyl)pyrazolo [1,5-a]pyridin-2-yl)-3,3-dimethylbutanamide]: “++ (4.0-5.99 (++))”. Regarding `CC(C)(C)CC(=O)Nc1nn2ccc(Cl)cc2c1-c1ccc(F)cc1` [Example 82, N-(5-chloro-3-(4-fluorophenyl)pyrazolo [1,5-a]pyridin-2-yl)-3,3-dimethylbutanamide], the “QPatch Kv7.2/7.3 Activity” value is recorded as “+++ (>6-fold (+++))”. As for `O=C(CC(O)(CF)CF)Nc1nn2ccc(C(F)(F)F)cc2c1C1CCC1` [Example 83, N-(3-cyclobutyl-5-(trifluoromethyl)pyrazolo[1,5-a]pyridin-2-yl)-4-fluoro-3-(fluoromethyl)-3-hydroxybutanamide], the “QPatch Kv7.2/7.3 Activity” value is “+ (2.0-3.99 (+))”.

For the molecule `CC(C)(C)CC(=O)NNc1nn2ccc(C(F)(F)F)cc2c1-c1ccc(F)cc1` [Example 84, N′-(3-(4-fluorophenyl)-5-(trifluoromethyl)pyrazolo [1,5-a]pyridin-2-yl)-3,3-dimethylbutanehydrazide], the “QPatch Kv7.2/7.3 Activity” value is given as “+/− (1.2-1.99-fold (+/−))”. For `CC(C)(O)CC(=O)NNc1nn2ccc(C(F)(F)F)cc2c1-c1ccc(F)cc1` [Example 85, N′-(3-(4-fluorophenyl)-5-(trifluoromethyl)pyrazolo [1,5-a]pyridin-2-yl)-3-hydroxy-3-methylbutanehydrazide], the “QPatch Kv7.2/7.3 Activity” value was “− (<1.2-fold (−))”. With `CC(C)(C)CC(=O)Nc1nn2ccc(C(F)(F)F)cc2c1C(C)(C)O` [Example 86, N-(3-(2-hydroxypropan-2-yl)-5-(trifluoromethyl)pyrazolo[1,5-a]pyridin-2-yl)-3,3-dimethylbutanamide], the “QPatch Kv7.2/7.3 Activity” value is reported as “+/− (1.2-1.99-fold (+/−))”.
